Assay results taken from article PMC5531494, “Target specificity, in vivo pharmacokinetics, and efficacy of the putative STAT3 inhibitor LY5 in osteosarcoma, Ewing's sarcoma, and rhabdomyosarcoma” (PLoS ONE, 2017).
Read-outs that look alike come from different tables or passages of the source.

Experiments:
[1] = Plasma PK profile in mice; format: in vivo; conditions: ICR, mouse; for AUC(0-inf): read-out: AUC inf-obs; for bioavailability: read-out: F (bioavailability)
Experimental: Single-dose toxicity studies in mice were performed to identify the maximum tolerated dose of LY5. Additionally, 30 ICR mice (Harlan Laboratories, Indianapolis, IN) were divided into 3 groups to be dosed with 5 mg/kg LY5 (2 mg/ml) by oral (PO), intraperitoneal (IP) or intravenous (IV) routes to establish oral bioavailability. Animals were euthanized and blood was collected at allocated time points (5, 10, 20, 30 and 60 minutes, 2, 4, 6, 8 and 24 hrs) after LY5 administration, plasma was separated by centrifugation and frozen immediately on dry ice. Samples were stored at -80° C prior to analysis.
The liquid chromatography-mass spectrometry system utilized for these analyses consisted of a Dionex Ultimate 3000 RSLCnano High Performance Liquid Chromatography system and a Thermo Finnigan Quantum Ultras EMR mass spectrometer with an electrospray ionization source. Positive ionization mode was used for both LY5 and the internal standard, hesperetin. Plasma samples were collected and analyzed by the OSU James Comprehensive Cancer Center Pharmacoanalytical Shared Resource. Pharsight Phoenix WinNonlin software using non-compartmental analysis was used to generate PK parameters including maximum plasma concentration (Cmax), amount of time that drug is present at Cmax (Tmax), and total area under the curve (AUC). AUC all and AUC last were calculated by linear trapezoidal method of concentration-time curve up to the last measured point. AUC inf-obs was calculated by log-linear extrapolation of the terminal phase beyond the last collection time. Bioavailability (F) was calculated for IP and PO administration routes. Plasma stability and liver microsomal stability of LY5 were also assessed through this shared resource.

[2] = molecular target: T1, STAT2 (Homo sapiens, UniProt P52630); assay: Cytokine-induced STAT2 phosphorylation in SJSA cells, Western blot; format: cell-based; conditions: induced by IFN-γ, IFN-α, or IL-4
T1 construct: endogenous in cells; host or cells: SJSA
T1 sequence (P52630 whole entry): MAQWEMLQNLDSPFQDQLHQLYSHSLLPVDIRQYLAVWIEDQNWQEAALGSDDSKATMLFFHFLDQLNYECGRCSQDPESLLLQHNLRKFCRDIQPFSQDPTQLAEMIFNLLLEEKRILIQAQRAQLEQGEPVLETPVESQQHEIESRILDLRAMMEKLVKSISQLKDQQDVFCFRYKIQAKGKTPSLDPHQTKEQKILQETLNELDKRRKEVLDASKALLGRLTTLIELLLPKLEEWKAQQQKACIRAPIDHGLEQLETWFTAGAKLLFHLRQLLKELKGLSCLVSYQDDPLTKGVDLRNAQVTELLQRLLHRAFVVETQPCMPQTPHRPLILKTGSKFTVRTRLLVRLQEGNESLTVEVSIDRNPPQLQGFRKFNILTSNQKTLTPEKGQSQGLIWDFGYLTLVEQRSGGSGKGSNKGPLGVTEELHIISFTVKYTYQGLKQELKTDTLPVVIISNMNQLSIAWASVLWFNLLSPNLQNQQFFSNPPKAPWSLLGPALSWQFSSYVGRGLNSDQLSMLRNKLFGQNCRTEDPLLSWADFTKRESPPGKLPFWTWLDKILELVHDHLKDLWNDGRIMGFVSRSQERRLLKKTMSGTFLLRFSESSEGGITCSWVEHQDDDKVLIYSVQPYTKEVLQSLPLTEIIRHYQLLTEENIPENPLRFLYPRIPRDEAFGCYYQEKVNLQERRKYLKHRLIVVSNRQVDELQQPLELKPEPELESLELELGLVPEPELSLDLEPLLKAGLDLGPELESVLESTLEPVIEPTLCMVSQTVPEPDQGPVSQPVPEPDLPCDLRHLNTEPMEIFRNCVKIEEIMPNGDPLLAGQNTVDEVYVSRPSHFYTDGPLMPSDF
Experimental: (§1) Cell lysis, protein isolation and immunoblotting were performed as described previously. Twenty micrograms of protein were resolved using 4–12% Bis-Tris polyacrylamide gels. Gels were transferred to PVDF membranes and subjected to blocking and incubation with primary and secondary antibodies. The primary antibodies used in this study included: phospho-STAT3 (Tyr705, Cell Signaling, Boston, MA and Abcam, Cambridge, MA), total STAT3 (Cell Signaling and Abcam), phospho-STAT1 (Cell Signaling), total STAT1 (Cell Signaling), phospho-STAT2 (Cell Signaling), phospho-STAT4 (Cell Signaling), phospho-STAT6 (Cell Signaling), and GAPDH (Cell Signaling). Protein bands were detected using Western Lightning ® Plus Enhanced Chemiluminescence substrate (Perkin Elmer, Waltham, MA) and HyBlot CL ® Autoradiography film (Denville Scientific, Holliston, MA). The cytokines used in this study included: interferon gamma (IFN-γ, Cell Signaling), interferon alpha (IFN-α, Cell Signaling), interleukin-4 (IL-4, Cell Signaling), interleukin-6 (IL-6, Cell Signaling), and oncostatin M (OSM, Cell Signaling).
(§2) Fig 1 LY5 inhibits pSTAT3 in sarcoma cell lines. (A) The tumor cell lines RH30, EW8, and RD were treated with increasing concentrations of LY5 for 30 minutes. Cell lysates were collected for Western blotting of p-STAT3, total STAT3, and GAPDH. GAPDH was used as loading control. […]

[3] = molecular target: T2, STAT1 (Homo sapiens, UniProt P42224); assay: Cytokine-induced STAT1 phosphorylation in SJSA cells, Western blot; format: cell-based; conditions: induced by IFN-γ, IFN-α, or IL-4
T2 construct: endogenous in cells; host or cells: SJSA
T2 sequence (P42224 whole entry): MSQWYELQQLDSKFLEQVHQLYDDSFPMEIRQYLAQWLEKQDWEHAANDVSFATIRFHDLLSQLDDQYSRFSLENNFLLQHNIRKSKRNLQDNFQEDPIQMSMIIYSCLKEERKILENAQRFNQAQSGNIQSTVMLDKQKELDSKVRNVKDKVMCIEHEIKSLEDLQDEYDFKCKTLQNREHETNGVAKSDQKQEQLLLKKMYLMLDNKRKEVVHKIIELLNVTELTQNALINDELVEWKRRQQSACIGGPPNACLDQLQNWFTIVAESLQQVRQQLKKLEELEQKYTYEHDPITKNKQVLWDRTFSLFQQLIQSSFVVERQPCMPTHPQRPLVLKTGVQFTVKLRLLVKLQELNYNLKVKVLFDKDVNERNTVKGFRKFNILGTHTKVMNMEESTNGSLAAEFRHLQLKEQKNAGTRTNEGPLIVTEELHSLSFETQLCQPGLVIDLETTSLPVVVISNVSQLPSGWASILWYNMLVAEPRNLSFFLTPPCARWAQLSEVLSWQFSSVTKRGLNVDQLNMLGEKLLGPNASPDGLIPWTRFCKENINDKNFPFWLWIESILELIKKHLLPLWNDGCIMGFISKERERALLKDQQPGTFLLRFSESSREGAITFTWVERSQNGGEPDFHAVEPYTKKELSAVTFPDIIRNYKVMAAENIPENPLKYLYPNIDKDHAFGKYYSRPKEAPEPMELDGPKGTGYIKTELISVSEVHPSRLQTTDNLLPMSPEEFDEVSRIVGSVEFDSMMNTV
Experimental: as §1, §2

NS(=O)(=O)c1cccc2c1C(=O)C=C(Nc1cccnc1)C2=O [LY5, 5,8-dioxo-6-(pyridin-3-ylamino)-5,8-dihydronaphthalene-1-sulfonamide]
AUC ([1]; 5 mg/kg IP): 0.717 µM·h
Cmax ([1]; 5 mg/kg IP): 545 nM
Tmax ([1]; 5 mg/kg IP): 4.98 min
AUC(0-inf) ([1]; 5 mg/kg IP): 0.794 µM·h
bioavailability ([1]; 5 mg/kg IP): 69.5%
AUC ([1]; 5 mg/kg IV): 1.14 µM·h
Cmax ([1]; 5 mg/kg IV): 1660 nM
Tmax ([1]; 5 mg/kg IV): 4.98 min
AUC(0-inf) ([1]; 5 mg/kg IV): 1.14 µM·h
AUC ([1]; 5 mg/kg PO): 0.784 µM·h
Cmax ([1]; 5 mg/kg PO): 509 nM
Tmax ([1]; 5 mg/kg PO): 30 min
AUC(0-inf) ([1]; 5 mg/kg PO): 0.898 µM·h
bioavailability ([1]; 5 mg/kg PO): 78.6%
phosphorylation of STAT2 [2]: did not inhibit
phosphorylation of STAT1 [3]: did not inhibit
